This note sets out measurements from patent US11873298B2, “Compounds and uses thereof” (JANSSEN PHARMACEUTICA NV, priority 2017, dated 2024).

The target of the first experiment is T1, SCD5 (Homo sapiens, UniProt Q86SK9).
T1 construct: host or cells: S. cerevisiae ole1Δ strain (W303 pdr1Δ pdr3Δ background), plasmid pRS316 with TDH3 promoter and CYC1 terminator
T1 sequence (Q86SK9 1-330): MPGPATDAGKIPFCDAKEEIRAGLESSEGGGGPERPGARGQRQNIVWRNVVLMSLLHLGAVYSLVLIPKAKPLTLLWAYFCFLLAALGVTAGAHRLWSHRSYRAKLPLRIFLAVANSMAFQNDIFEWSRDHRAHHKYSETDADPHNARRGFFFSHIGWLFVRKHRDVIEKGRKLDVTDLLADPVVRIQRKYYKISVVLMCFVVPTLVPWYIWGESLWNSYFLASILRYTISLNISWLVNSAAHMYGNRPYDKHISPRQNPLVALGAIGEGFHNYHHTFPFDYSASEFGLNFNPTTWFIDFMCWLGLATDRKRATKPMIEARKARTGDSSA
The experiment can be described thus: Growth inhibition of humanized yeast strain expressing SCD5 as sole desaturase. Format: cell-based. The following applies: humanized yeast strain expressing SCD5. How it is done: Strain oleΔ (yeast ole1 deletion mutant) was constructed by deleting OLE1 with NAT-MX6 in BY4741, amplifying the deletion cassette from the genomic DNA of the resulting strain with primers flanking the ORF by 1000 bp upstream and downstream, transforming the resulting deletion cassette into W303 pdr1Δ pdr3Δ, and plating transformants on YPD media containing G418 (200 μg/mL) and nourseothricin ([…]) with 0.01% TWEEN®-20 and 0.5 mM oleic and palmitoleic acids.
The coding sequence of yeast OLE1 was also cloned into this plasmid). These clones were then transformed into the ole1Δ strain and plated on CSM-Ura media (CSM lacking uracil) with 2% glucose (w/v) and independent colonies were isolated and amplified.
All compound profiling experiments were performed using the same basic protocol. Different genetic backgrounds (e.g., gene deletions) or conditions (e.g., addition of oleic and palmitoleic acid) were replaced as indicated below.
Yeast were cultured using standard techniques in complete synthetic media (CSM) and yeast nitrogen base supplemented with 2% (w/v) carbon source (glucose, raffinose, or galactose) to regulate the expression of the toxic disease protein. An initial starter culture was inoculated in 3 mL CSM-Glucose media and incubated overnight in a 30° C. shaker incubator (225 rpm). Saturated morning cultures were then diluted 1:20 in fresh CSM-Raffinose media and grown for 6 h to an OD600 (optical density) of ˜0.4-0.8 at 30° C. with shaking.
Compound administration was performed in two separate steps. First, 15 μL of CSM-Galactose (induces expression of toxic protein) was dispensed into clear 384 well assay plates using a MULTIDROP™ Combi reagent dispenser. […] The cultures described above were then diluted to a 2× concentration (0.03 and 0.08 for alpha-synuclein and ApoE, final ODsoo of 0.015 and 0.04) in CSM-Galactose. For wild-type and Ole1/SCD1/SCD5 plasmid-containing strains, the 2× cell density was 0.02. […] For 96-well assays (FIGS. 1A and 1B), compound dilutions in DMSO were generated in 96 well plates and 1 μL was manually pipetted into 96 well clear bottom assay plates.
For experiments using a plasmid-borne copy of Ole1, SCD1, or SCD5 (FIGS. 3B, 6, and 7), media lacking uracil (SX-Ura, where X is glucose, raffinose, or galactose), was used for all steps of the compound profiling protocol to ensure its maintenance throughout the assay.
After yeast delivery, assay plates were incubated under humidified conditions at 30° C. for 24 to 40 h. ApoE4 rescue experiments were stopped at 24 h, aSyn experiments at 40 h, Ole1 at 24 h, and SCD1/SCD5 at 40 h. The growth of yeast was monitored by reading the ODsoo of each well using a microplate reader (Perkin Elmer EnVision™).
On to `CC(C)OC(=O)N1CCC(c2nc(-c3ccc4oc(=O)n(C(C)C)c4c3)no2)CC1` [Compound 507], for which half-maximal inhibition (IC50) required 2.44 µM. Turning to `CC(C)n1ncc2ccc(-c3noc(C4CCN(C(=O)c5ccsn5)CC4)n3)cc21` [Compound 588], half-maximal inhibition (IC50) was put at 1.86 µM. As for `CC(C)n1ncc2ccc(-c3noc(C4CCN(C(=O)c5ccccc5F)CC4)n3)cc21` [Compound 532], the midpoint of inhibition, the IC50, lay at 2.15 µM.

Turning to `C[C@@H](O)C(=O)N1CCC(c2nc(-c3ccc4cnn(C5COC5)c4c3)no2)CC1` [Compound 597], the IC50 – broadly, the concentration needed to halve the response being measured – is greater than 45 µM. Still for that read-out and setting: as for `CC(C)n1ncc2ccc(-c3noc(C4CCN(C(=O)c5ccsc5Cl)CC4)n3)cc21` [Compound 575], the figure is 4.68 µM; as for `Cc1nn(C)c2cc(-c3nsc(C4CCN(C(=O)OC(C)(C)C)CC4)n3)ccc12` [Compound 503], 0.316 µM; as for `CC(C)n1ncc2ccc(-c3nc(C4CCN(C(=O)c5ccccn5)CC4)no3)cc21` [Compound 499], 1.1 µM. Same read-out and setting: the same measure for `CC(C)n1ncc2ccc(-c3noc(C4CCN(C(=O)c5ncc(Cl)s5)CC4)n3)cc21` [Compound 589]: 0.356 µM. `CC(C)n1ncc2ccc(-c3noc(C4CCN(C(=O)c5ccc(Cl)c(F)c5)CC4)n3)cc21` [Compound 541] came in with an IC50 greater than 45 µM. On the same count and under the same terms, the same measure for `CC(=O)N1CCC2(CC1)CN(c1nc(-c3ccc4cnn(C(C)C)c4c3)no1)C2` [Compound 571]: greater than 45 µM; for `CCc1cnc(N2CCC(c3nc(-c4ccc5c(C)nn(C)c5c4)no3)CC2)cn1` [Compound 560]: greater than 45 µM; for `Cn1ncc2ccc(-c3noc(N4CCN(C(=O)OC(C)(C)C)CC4)n3)cc21` [Compound 545]: 18.9 µM. The same measure, in the same setting: the same measure for `O=C(c1ccccc1)N1CCC(c2nc(-c3ccc4cnn(C5COC5)c4c3)no2)CC1` [Compound 564]: 4.23 µM; for `CC(C)n1ncc2ccc(-c3noc(N4C[C@@H]5CN(C(=O)CC(C)(C)C)C[C@H]5C4)n3)cc21` [Compound 569]: greater than 45 µM; for `COC(=O)N[C@H]1CC[C@@H](c2nc(-c3ccc4c(C)nn(C)c4c3)no2)CC1` [Compound 550]: greater than 45 µM.

`COC(=O)N1CCC(c2nc(-c3ccc4cnn(C(F)F)c4c3)no2)CC1` [Compound 561] gave an IC50 of 29.4 µM. Still for that read-out and setting: as for `Cc1nn(C)c2cc(-c3noc(C4CCN(c5nc(C(C)C)no5)CC4)n3)ccc12` [Compound 581], the figure is greater than 45 µM; as for `CC(C)n1ncc2ccc(-c3noc(C4CCN(C(=O)c5cscn5)CC4)n3)cc21` [Compound 573], 5.6 µM; as for `CC(C)n1ncc2ccc(-c3nc(N4CCN(C(=O)OC(C)(C)C)CC4)no3)cc21` [Compound 548], 0.01 µM. Same read-out and setting: the same measure for `CC(C)n1ncc2ccc(-c3noc(C4CCN(C(=O)c5ncccc5Cl)CC4)n3)cc21` [Compound 587]: 4.92 µM; for `CC(C)n1ncc2ccc(-c3noc(C4CCN(C(=O)c5ccc(F)cc5)CC4)n3)cc21` [Compound 544]: 10 µM. Still for that read-out and setting: the same measure for `CC(C)n1ncc2ccc(-c3nc(C4CCN(C(=O)c5cccc(F)c5)CC4)no3)cc21` [Compound 506]: 0.81 µM. Take `CC(C)n1ncc2ccc(N3CC4(CCN(C(=O)c5ccccc5Cl)CC4)C3)cc21` [Compound 534]: the IC50 came to 36.8 µM.

Staying with this experiment, now noted: yeast strain expressing human SCD5 as sole desaturase; Table 8.
Consider `COC(=O)N1CCC(c2noc(-c3cc(C4CCOC4)ncc3F)n2)CC1` (centres unmarked) [Compound 1274], for which the midpoint of inhibition, the IC50, lay at 0.19 µM. For `O=C(OC1CCC1)N1CCC(c2noc(-c3ccc(=O)n(C4COC4)c3)n2)CC1` [Compound 1309], the IC50 was 1.03 µM.

Turning to `O=C(C1CCC1)N1CCC(c2noc(-c3ccnc([C@H]4CCOC4)c3)n2)CC1` [Compound 1240], the IC50 was 0.2 µM. The same measure, in the same setting: as for `CC1(OC(=O)N2CCC(c3noc(-c4ccnc(-c5cocn5)c4)n3)CC2)CC1` [Compound 1310], the figure is 0.47 µM; as for `O=C(C1CC1)N1CCC(c2noc(-c3ccnc(N4CCC(F)(F)C4)c3)n2)CC1` [Compound 1247], 1.05 µM; as for `CC(C)C(=O)N1CCC(c2noc(N3CCc4cnn(C5COC5)c4C3)n2)CC1` [Compound 1223], 2.3 µM. Same read-out and setting: the same measure for `CC(C)(C)OC(=O)N1CCC(c2noc(-c3cc(C4CCOC4)ncc3F)n2)CC1` (centres unmarked) [Compound 1267]: 2.65 µM. Same read-out and setting: the same measure for `CC(C)CC(=O)N1CCC(c2noc(-c3cnc4cnn(C5COC5)c4c3)n2)CC1` [Compound 1214]: 0.39 µM.

`CC1(OC(=O)N2CCC(c3noc(-c4cccc(C5CCOC5)n4)n3)CC2)CC1` (centres unmarked) [Compound 1197] gave an IC50 of 17.9 µM. Same read-out and setting: as for `O=C(N1CCC(c2nc(-c3ccnc(C4CCOC4)c3)no2)CC1)C1(F)CC1` (centres unmarked) [Compound 1229], the figure is 1.51 µM; as for `CC(C)(C)OC(=O)N1CCC(c2cc(-c3ccnc(C4CCOC4)n3)no2)CC1` (centres unmarked) [Compound 1202], 7.13 µM; as for `CC1(C(=O)N2CCC(c3noc(-c4cncc(C5CCOC5)c4)n3)CC2)CCC1` (centres unmarked) [Compound 1270], 0.4 µM. Same read-out and setting: the same measure for `CC1(OC(=O)N2CCC(c3noc(N4CCc5cnn(C6COC6)c5C4)n3)CC2)CC1` [Compound 1224]: 0.06 µM; for `CC(C)C(=O)N1CCC(c2noc(-c3cc(C4CCOC4)ccn3)n2)CC1` (centres unmarked) [Compound 1204]: 2.39 µM. Still for that read-out and setting: the same measure for `CC(C)S(=O)(=O)N1CCC(c2noc(-c3ccc4cnn(C5COC5)c4c3)n2)CC1` [Compound 1218]: 0.16 µM; for `CCC(=O)N1CCC(c2noc(-c3cc(C4CCOC4)ccn3)n2)CC1` (centres unmarked) [Compound 1281]: 6.99 µM; for `COC(=O)N1CCC(c2noc(-c3cnnc(C4CCOC4)c3)n2)CC1` (centres unmarked) [Compound 1250]: 10.1 µM. Consider `CC1(OC(=O)N2CCC(c3noc(-c4ccc(C5CCOC5)nc4)n3)CC2)CC1` (centres unmarked) [Compound 1268], for which 32.6 µM corresponded to half-maximal inhibition (IC50). As for `CCC(=O)N1CCC(c2noc(-c3ccnc(N4CCC(F)(F)C4)c3)n2)CC1` [Compound 1248], the IC50 was determined as 6.93 µM. As to `CC1(C(=O)N2CCC(c3cc(-c4cc5c(cn4)cnn5C4COC4)on3)CC2)CC1` [Compound 1237], the midpoint of inhibition, the IC50, lay at 0.07 µM. In turn, `O=C(OC1CCC1)N1CCC(c2noc(-c3cc(C4CCOC4)ncn3)n2)CC1` (centres unmarked) [Compound 1312] gave an IC50 of 0.02 µM. As for `O=C(C1CC1)N1CCC(c2cc(-c3cc4c(cn3)cnn4C3COC3)on2)CC1` [Compound 1236], 0.2 µM corresponded to half-maximal inhibition (IC50).

`CC(C)(C)OC(=O)N1CCC(c2noc(-c3cnnc(C4CCOC4)c3)n2)CC1` (centres unmarked) [Compound 1234] gave an IC50 of 0.49 µM. The molecule `CC(C)C(=O)N1CCC(c2noc(-c3ccnc(-c4cnco4)c3)n2)CC1` [Compound 1264] had an IC50 of 3.27 µM.

Turning to `COC(=O)N1CCC(c2nc(-c3ccnc(C4CCOC4)c3)no2)CC1` (centres unmarked) [Compound 1230], the IC50 stood at 6.88 µM. The same measure, in the same setting: the same measure for `CC(C)CC(=O)N1CCC(c2cc(-c3cnc4cnn(C5COC5)c4c3)on2)CC1` [Compound 1231]: 16.4 µM.

Molecule `CC(C)(C)OC(=O)N1CCC(c2noc(-c3ccc(C4CCOC4)nc3)n2)CC1` (centres unmarked) [Compound 1262] came in with an IC50 of 14.1 µM.

In turn, `CC1(OC(=O)N2CCC(c3noc(-c4cncc(C5CCOC5)c4)n3)CC2)CC1` (centres unmarked) [Compound 1206] returned an IC50 of 0.32 µM.

`O=C(C1CCC1)N1CCC(c2noc(-c3ccnc([C@@H]4CCOC4)c3)n2)CC1` [Compound 1242] registered an IC50 of 0.38 µM.

For `O=C(C1CCC1)N1CCC(c2cc(-c3cnc4cnn(C5COC5)c4c3)on2)CC1` [Compound 1232], the IC50 came out at 7.84 µM. The same measure, in the same setting: the same measure for `O=C(C1CCC1)N1CCC(c2noc(-c3ccnc(O[C@@H]4CCOC4)c3)n2)CC1` [Compound 1269]: 0.59 µM. The same measure, in the same setting: as for `CC(C)(C)OC(=O)N1CCC(c2noc(-c3ccnc(-c4cnco4)c3)n2)CC1` [Compound 1245], the figure is 0.58 µM; as for `CC(C)(C)OC(=O)N1CCC(c2noc(-c3ccnc(-c4ccon4)c3)n2)CC1` [Compound 1277], 2.5 µM.
